Experimental data reported in patent US5436269A, “Method for treating hepatitis” (Sagami Chemical Research Center, priority 1991, dated 1995).

Columns and labels:
in vivo = test: in vivo; design: species or system ddy-N mice; conditions: mouse
Protocol: Acute toxicity of ethyl docosahexaenoate was tested.
Tested animal: ddy-N mice, 5-week age, 5 male and 5 female
All tested mice were anatomically evaluated after the test.

fulminant hepatitis = test: Survival of model rats with induced fulminant hepatitis (D-galactosamine hydrochloride and lipopolysaccharide); type: in vivo, Wister rats
Protocol: Male Wister rats of 200 g weight were processed to be model animals for inducing hepatitis. Namely, 1500 mg/kg-weight of D-galactosamine hydrochloride was intestinally administrated and, at the same time, 10 μg of lipopolysaccharide derived from E. coli 0111:B4 was injected intravenously.

| SMILES | LD50 (in vivo) [mg/kg] | rats survived (fulminant hepatitis; emulsion of ethyl ester of 99% pure DHA, same experiment as Example 2, control rats died within 24 hours) [%] | model rats survived more than 24 hours (fulminant hepatitis; emulsion containing 10% of 99% pure DHA triglyceride, simultaneous with hepatitis inducer) [%] | induction of hepatitis (fulminant hepatitis; model rats, result in words) |
| --- | --- | --- | --- | --- |
| CC/C=C\C/C=C\C/C=C\C/C=C\C/C=C\C/C=C\CCC(=O)OCC [ethyl docosahexaenoate] | > 2000 | 75 | – | – |
| CC/C=C\C/C=C\C/C=C\C/C=C\C/C=C\C/C=C\CCC(=O)OCC(COC(=O)CC/C=C\C/C=C\C/C=C\C/C=C\C/C=C\C/C=C\CC)OC(=O)CC/C=C\C/C=C\C/C=C\C/C=C\C/C=C\C/C=C\CC [DHA triglyceride] | – | – | 67 | inhibits the induction of hepatitis |
